From US20240009173A1, “Use of 5-HT3-Targeting Drugs for Treatment of Acute Kidney Injury” (priority 2020, published 2024)
Read-outs that look alike come from different tables or passages of the source.

What was measured:
[1] = test system: patients with AKI; parameters: species or system human; settings: in vivo
[2] = test system: ICU patients with AKI; settings: cited from earlier work
[3] = test system: patients with AKI; settings: human, in vivo
[4] = test system: patients with AKI; settings: human, in vivo; remark: listed apart in the source
[5] = test system: all ICU patients; settings: cited from earlier work
[6] = test system: ICU patients; test: Anti-emetic use and in-ICU death, logistic regression (Example 3); assay type: in vivo, human; settings: outcome in-ICU death
[7] = test system: patients without AKI on admission or prior to receiving drug; test: Anti-emetic usage and AKI risk in first ICU encounter: usage, max KDIGO category, binary logistic regression (Example 3); assay type: in vivo, human; settings: for MAX KDIGO AKI Category 0 (%) / MAX KDIGO AKI Category 0, number of patients / MAX KDIGO AKI Category 1 (%) / MAX KDIGO AKI Category 1, number of patients / MAX KDIGO AKI Category 2 (%) / MAX KDIGO AKI Category 2, number of patients / MAX KDIGO AKI Category 3 (%) / MAX KDIGO AKI Category 3, number of patients: drug users, use before discharge/death or before AKI
Source text: Study Population: The study population excludes patients with end-stage kidney disease and excludes patients with Acute Kidney Injury on admission or prior to receiving drug. […] Metoclopramide is primarily a dopamine D2 receptor antagonist anti-emetic. […] Prochlorperazine is primarily a dopamine receptor antagonist anti-emetic. […] This was a binary logistic regression with an outcome of experiencing any AKI within a first ICU encounter. The independent variable was use of anti-emetic prior to AKI (or before discharge if no AKI). […] The independent variable was use of anti-emetic prior to AKI (or before discharge if no AKI). […] The outcome was experiencing any AKI. The […] was the use of medication within the average time prior to AKI.

[8] = literature and/or clinical trials
[9] = use of medication within average time prior to AKI
[10] = use within average time prior to AKI and Apache Score on ICU admission
[11] = outcome AKI Category 2 or 3 vs Category 0 or 1, use of anti-emetic prior to AKI (or before discharge)
[12] = outcome any AKI within first ICU encounter, use of anti-emetic prior to AKI (or before discharge if no AKI)
[13] = outcome any AKI, use of medication within the average time prior to AKI

| Compound | Coefficient [1] | Reported for protecting effect in ICU patients with AKI [2, 8] | Death rate in eICU database [3] | Death rate in MIMIC III database [4] | Reported for protecting effect in all ICU patients [5, 8] | Reported for protecting effect in ICU patients with AKI [2] | Reported for protecting effect in all ICU patients [5] | also measured |
| --- | --- | --- | --- | --- | --- | --- | --- | --- |
| O=C(CCCN1CCC(O)(c2ccc(Cl)cc2)CC1)c1ccc(F)cc1 [Haloperidol] | −0.063 | N | 201.23 per 1,000 patients | 194.85 per 1,000 patients | N |  |  |  |
| NCCCC[C@H](N[C@@H](CCc1ccccc1)C(=O)O)C(=O)N1CCC[C@H]1C(=O)O [Lisinopril] | −0.049 | Y^15 | 21.71 per 1,000 patients | 53.11 per 1,000 patients | Y^14 |  |  |  |
| CC(=O)CC(c1ccccc1)c1c(O)c2ccccc2oc1=O (centres unmarked) [Warfarin] | −0.115 | N | 35.34 per 1,000 patients | 67.31 per 1,000 patients | Y^1 |  |  |  |
| O=C1Nc2ccc(Cl)cc2C(c2ccccc2Cl)=NC1O (centres unmarked) [Lorazepam] | 0.031 |  | 228.92 per 1,000 patients | 285.59 per 1,000 patients |  | N | N |  |
| COc1ccc2c3c1O[C@H]1C(=O)CC[C@@]4(O)[C@@H](C2)N(C)CC[C@]314 [Oxycodone] | −0.089 |  | 55.56 per 1,000 patients | 94.98 per 1,000 patients |  | N | Y^9 |  |
| Cc1ncc2n1-c1ccc(Cl)cc1C(c1ccccc1F)=NC2 [Midazolam] | 0.027 |  | 273.07 per 1,000 patients | 899.95 per 1,000 patients |  | N | Y^20 |  |
| CCN(CC)CCNC(=O)c1cc(Cl)c(N)cc1OC [Metoclopramide] |  | N | 158.32 per 1,000 patients | 248.67 per 1,000 patients | N |  |  | Odds Ratio [6, 9]: 1.270; Odds Ratio [6, 10]: 1.08; MAX KDIGO AKI Category 0 (%) [7]: (72.54) %; MAX KDIGO AKI Category 0, number of patients [7]: 3,830; MAX KDIGO AKI Category 1 (%) [7]: (14.05) %; MAX KDIGO AKI Category 1, number of patients [7]: 742; MAX KDIGO AKI Category 2 (%) [7]: (6.91) %; MAX KDIGO AKI Category 2, number of patients [7]: 365; MAX KDIGO AKI Category 3 (%) [7]: (6.50) %; MAX KDIGO AKI Category 3, number of patients [7]: 343; Odds Ratio [7, 11]: 1.033; Odds Ratio [7, 12]: 0.408; Odds Ratio [7, 13]: 1.249 |
| O=S(=O)([O-])[O-].[Mg+2] [Magnesium Sulfate] | −0.054 |  | 172.14 per 1,000 patients | 203.36 per 1,000 patients |  | Y^4 | Y^3 |  |
| Heparin | −0.053 | N | 143.03 per 1,000 patients | 210.41 per 1,000 patients | Y^10 |  |  |  |
| CN1CCN(CCCN2c3ccccc3Sc3ccc(Cl)cc32)CC1 [Prochlorperazine] |  |  |  |  |  |  |  | Odds Ratio [6, 9]: 0.736; Odds Ratio [6, 10]: 0.879; MAX KDIGO AKI Category 0 (%) [7]: (73.48) %; MAX KDIGO AKI Category 0, number of patients [7]: 2,488; MAX KDIGO AKI Category 1 (%) [7]: (14.77) %; MAX KDIGO AKI Category 1, number of patients [7]: 500; MAX KDIGO AKI Category 2 (%) [7]: (5.88) %; MAX KDIGO AKI Category 2, number of patients [7]: 199; MAX KDIGO AKI Category 3 (%) [7]: (5.88) %; MAX KDIGO AKI Category 3, number of patients [7]: 199; Odds Ratio [7, 11]: 0.90; Odds Ratio [7, 12]: 0.457; Odds Ratio [7, 13]: 0.988 |
| NS(=O)(=O)c1cc(C(=O)O)c(NCc2ccco2)cc1Cl [Furosemide] | −0.036 | Y^8 | 120.87 per 1,000 patients | 214.64 per 1,000 patients | Y^7 |  |  |  |
| COCCc1ccc(OCC(O)CNC(C)C)cc1 (centres unmarked) [Metoprolol] | −0.051 | N | 107.87 per 1,000 patients | 169.99 per 1,000 patients | Y^11 |  |  |  |
